Assay results: patent publication US4296112A, “Cephalosporins” (Mitsui Toatsu Chemicals, Inc., priority 1979, dated 1981)
≈ marks a conversion by molar mass, not a printed value. Read-outs that look alike come from different tables or passages of the source.

What was measured:
Assay type in all cases: cell-based
[1] = system: Pseudomonas aeruginosa (NCTC 7244); assay: Minimum bactericidal concentration (Referential Example 2, Table 2); conditions: NCTC7244, 18 h, subculture on HIA medium
Procedure: The compounds obtained in Synthesis Examples 1 to 4 were tested in the following manner.
A suspension of Pseudomonas aeruginosa (NCTC 7244) cultivated at 37° C. for 18 hours in a heart infusion broth medium (HIB medium) in a final amount of 10^5, 10^6 and 10^7 cells/ml in an HIB medium containing each of the test compounds which was obtained in the same way as in Referential Example 1 except that the maximum concentration of the test compound was 200 μg/ml. The bacterial strain was cultivated at 37° C. for 18 hours, and the turbidity of the culture broth was evaluated with the naked eye. The minimum concentration of the test compound at which no turbidity was noted was defined as MIC.
The growth of the bacterial strain was evaluated.

[2] = system: Enterobacter aerogenes (IFO 3320); assay: MIC, agar plate dilution (Referential Example 1, Table 1); conditions: Klebsiella aerogenes, IFO3320, 18 h, read-out: Minimum growth inhibitory concentration (MIC)
Procedure: (§1) The antibacterial activities of the cephalosporins of this invention were measured using the sodium salts of the compounds obtained in Synthesis Examples 1 and 2. The procedure and the results are shown in Referential Example 1.
(§2) Carbenicillin sodium salt (CB-PC) and cephazoline sodum salt (CEZ) were used as controls.
(§3) The antibacterial activities of the test compounds against various Gram-positive and Gram-negative bacteria were determined in a customary manner by the minimum growth inhibitory concentration method (MIC method).
(§4) The experimental procedure was as follows:
(§5) A commercially available heart infusion agar medium (to be abbreviated HIA medium) was used as an assay medium, and a commercially available trypto-soy bouillon medium (to be abbreviated TSB) was used as a medium for the growth of test bacterial strains.
(§6) The test compound was diluted with the melted HIA medium to 100 μg/ml as a maximum concentration, and then serially diluted double. The dilutions were poured into sterilized Petri dishes respectively and allowed to cool and solidify to prepare plates containing the test compound.
(§7) The test bacterial strain was cultivated at 37° C. for 18 to 24 hours in the TSB medium. The culture broth was diluted to 50 to 500 times with a freshly prepared TSB culture medium, and one platinum loopful of the dilution was inoculated in each of the plates containing the test compound.

[3] = system: Pseudomonas aeruginosa (ATCC 10145); assay: as above; conditions: ATCC10145, HIA medium plate, 37° C., 18 hours, read-out: Minimum growth inhibitory concentration (MIC)
Procedure: as §1, §2, §3, §4, §5, §6, §7

[4] = system: Klebsiella pneumonia (F-5089); assay: as above; conditions: Klebsiella pneumoniae; HIA medium plate, 37° C., 18 hours; read-out: Minimum growth inhibitory concentration (MIC)
Procedure: as §1, §2, §3, §4, §5, §6, §7

[5] = system: Proteus vulgaris (OX-19); assay: as above; conditions: 18 h, read-out: Minimum growth inhibitory concentration (MIC)
Procedure: as §1, §2, §3, §4, §5, §6, §7

[6] = system: Pseudomonas aeruginosa (S-1); assay: as above; conditions: HIA medium plate, 37° C., 18 hours, read-out: Minimum growth inhibitory concentration (MIC)
Procedure: as §1, §2, §3, §4, §5, §6, §7

[7] = system: Bacillus cereus (IAM 1792); assay: as above; conditions: IAM1792, HIA medium plate, 37° C., 18 hours, read-out: Minimum growth inhibitory concentration (MIC)
Procedure: as §1, §2, §3, §4, §5, §6, §7

[8] = system: Escherichia coli (26RO3); assay: as above; conditions: HIA medium plate, 37° C., 18 hours, read-out: Minimum growth inhibitory concentration (MIC)
Procedure: as §1, §2, §3, §4, §5, §6, §7

[9] = system: Pseudomonas aeruginosa (IFO-3901); assay: as above; conditions: IFO3901, HIA medium plate, 37° C., 18 hours, read-out: Minimum growth inhibitory concentration (MIC)
Procedure: as §1, §2, §3, §4, §5, §6, §7

[10] = system: Staphylococcus aureus (Y-8); assay: as above; conditions: HIA medium plate, 37° C., 18 hours, read-out: Minimum growth inhibitory concentration (MIC)
Procedure: as §1, §2, §3, §4, §5, §6, §7

[11] = system: Streptococcus faecalis (Hoshi); assay: as above; conditions: Enterococcus faecalis; HIA medium plate, 37° C., 18 hours; read-out: Minimum growth inhibitory concentration (MIC)
Procedure: as §1, §2, §3, §4, §5, §6, §7

[12] = system: Pseudomonas maltophilia (F-6257); assay: as above; conditions: Stenotrophomonas maltophilia; HIA medium plate, 37° C., 18 hours; read-out: Minimum growth inhibitory concentration (MIC)
Procedure: as §1, §2, §3, §4, §5, §6, §7

[13] = system: Escherichia coli (NIHJ); assay: as above; conditions: 18 h, read-out: Minimum growth inhibitory concentration (MIC)
Procedure: as §1, §2, §3, §4, §5, §6, §7

[14] = system: Pseudomonas aeruginosa (395); assay: as above; conditions: read-out: Minimum growth inhibitory concentration (MIC)
Procedure: as §1, §2, §3, §4, §5, §6, §7

[15] = system: Pseudomonas aeruginosa (718); assay: as above; conditions: HIA medium plate, 37° C., 18 hours, read-out: Minimum growth inhibitory concentration (MIC)
Procedure: as §1, §2, §3, §4, §5, §6, §7

[16] = system: Pseudomonas aeruginosa (F1629); assay: as above; conditions: HIA medium plate, 37° C., 18 hours, read-out: Minimum growth inhibitory concentration (MIC)
Procedure: as §1, §2, §3, §4, §5, §6, §7

[17] = system: Shigella flexneri (K-A); assay: as above; conditions: HIA medium plate, 37° C., 18 hours, read-out: Minimum growth inhibitory concentration (MIC)
Procedure: as §1, §2, §3, §4, §5, §6, §7

[18] = system: Salmonella enteritidis (KB-21); assay: as above; conditions: Salmonella enterica, HIA medium plate, 37° C., 18 hours, read-out: Minimum growth inhibitory concentration (MIC)
Procedure: as §1, §2, §3, §4, §5, §6, §7

[19] = system: Proteus rettgeri (T-2); assay: as above; conditions: Providencia rettgeri; HIA medium plate, 37° C., 18 hours; read-out: Minimum growth inhibitory concentration (MIC)
Procedure: as §1, §2, §3, §4, §5, §6, §7

[20] = system: Staphylococcus aureus (FDA 209P); assay: as above; conditions: FDA209P, 18 h, read-out: Minimum growth inhibitory concentration (MIC)
Procedure: as §1, §2, §3, §4, §5, §6, §7

[21] = system: Proteus morganii (C-39); assay: as above; conditions: Morganella morganii; HIA medium plate, 37° C., 18 hours; read-out: Minimum growth inhibitory concentration (MIC)
Procedure: as §1, §2, §3, §4, §5, §6, §7

[22] = system: Klebsiella pneumoniae (ATCC 10031); assay: as above; conditions: ATCC10031, 18 h, read-out: Minimum growth inhibitory concentration (MIC)
Procedure: as §1, §2, §3, §4, §5, §6, §7

[23] = system: Escherichia coli (K-12); assay: as above; conditions: 18 h, read-out: Minimum growth inhibitory concentration (MIC)
Procedure: as §1, §2, §3, §4, §5, §6, §7

[24] = system: Klebsiella pneumoniae (Horino); assay: as above; conditions: HIA medium plate, 37° C., 18 hours, read-out: Minimum growth inhibitory concentration (MIC)
Procedure: as §1, §2, §3, §4, §5, §6, §7

[25] = system: Pseudomonas aeruginosa (NCTC 7244); assay: as above; conditions: NCTC7244, HIA medium plate, 37° C., 18 hours, read-out: Minimum growth inhibitory concentration (MIC)
Procedure: as §1, §2, §3, §4, §5, §6, §7

[26] = system: Serratia marcescens (S-33); assay: as above; conditions: HIA medium plate, 37° C., 18 hours, read-out: Minimum growth inhibitory concentration (MIC)
Procedure: as §1, §2, §3, §4, §5, §6, §7

Row | Structure (SMILES) | MBC ([1]; 10^5 cells/ml inoculated) [µg/mL] | MBC ([1]; 10^6 cells/ml inoculated) [µg/mL] | MBC ([1]; 10^7 cells/ml inoculated) [µg/mL] | MIC [2] [µg/mL] | MIC [3] [µg/mL] | MIC [4] [µg/mL] | MIC [5] [µg/mL] | MIC [6] [µg/mL] | MIC [7] [µg/mL] | MIC [8] [µg/mL] | MIC [9] [µg/mL] | MIC [10] [µg/mL] | MIC [11] [µg/mL] | MIC [12] [µg/mL] | MIC [13] [µg/mL] | MIC [15] [µg/mL] | MIC [16] [µg/mL] | MIC [17] [µg/mL] | MIC [18] [µg/mL] | MIC [19] [µg/mL] | other results
1 | CC(=O)OCC1=C(C(=O)O)N2C(=O)C(NC(=O)[C@H](NC(=O)c3cnc4c(c3O)C(=O)CCC4)c3ccc(O)cc3)C2SC1 (single isomer, unassigned) [Synthesis Example 1, 7-[D-(-)-α-(4-hydroxy-5-oxo-5,6,7,8-tetrahydroquinoline-3-carboxamide)-α-(4-hydroxyphenyl)acetamido]-3-acetoxymethyl-Δ^3-cephem-4-carboxylic acid] | 12.5 (≈ 20.5 µM) | 25 (≈ 40.9 µM) | > 200 | 0.39 (≈ 0.639 µM) | 12.5 (≈ 20.5 µM) | 3.13 (≈ 5.13 µM) | 1.56 (≈ 2.55 µM) | 3.13 (≈ 5.13 µM) | 25 (≈ 40.9 µM) | 3.13 (≈ 5.13 µM) | 12.5 (≈ 20.5 µM) | 3.13 (≈ 5.13 µM) | 25 (≈ 40.9 µM) | 0.25 (≈ 0.409 µM) | 1.56 (≈ 2.55 µM) | 12.5 (≈ 20.5 µM) | 12.5 (≈ 20.5 µM) | 0.39 (≈ 0.639 µM) | 0.78 (≈ 1.28 µM) | 3.13 (≈ 5.13 µM) | MIC ([14]; 18 h): 1.56 µg/mL (≈ 2.55 µM); MIC [20]: 1.56 µg/mL (≈ 2.55 µM); MIC [21]: 12.5 µg/mL (≈ 20.5 µM); MIC [22]: 1.56 µg/mL (≈ 2.55 µM); MIC [23]: 1.56 µg/mL (≈ 2.55 µM); MIC [24]: 3.13 µg/mL (≈ 5.13 µM); MIC [25]: 12.5 µg/mL (≈ 20.5 µM); MIC [26]: 25 µg/mL (≈ 40.9 µM)
2 | Cc1nnc(SCC2=C(C(=O)O)N3C(=O)C(NC(=O)[C@H](NC(=O)c4cnc5c(c4O)C(=O)CCC5)c4ccc(O)cc4)C3SC2)s1 (single isomer, unassigned) [Synthesis Example 2] | 12.5 (≈ 18.3 µM) | 12.5 (≈ 18.3 µM) | > 200 | 0.39 (≈ 0.571 µM) | 12.5 (≈ 18.3 µM) | 1.56 (≈ 2.28 µM) | 0.78 (≈ 1.14 µM) | 1.56 (≈ 2.28 µM) | 12.5 (≈ 18.3 µM) | 1.56 (≈ 2.28 µM) | 6.25 (≈ 9.15 µM) | 3.13 (≈ 4.58 µM) | 12.5 (≈ 18.3 µM) | 3.13 (≈ 4.58 µM) | 0.78 (≈ 1.14 µM) | 12.5 (≈ 18.3 µM) | 6.25 (≈ 9.15 µM) | 0.2 (≈ 0.293 µM) | 0.2 (≈ 0.293 µM) | 1.56 (≈ 2.28 µM) | MIC ([14]; HIA medium plate, 37° C., 18 hours): 3.13 µg/mL (≈ 4.58 µM); MIC [20]: 0.78 µg/mL (≈ 1.14 µM); MIC [21]: 6.25 µg/mL (≈ 9.15 µM); MIC [22]: 0.78 µg/mL (≈ 1.14 µM); MIC [23]: 0.39 µg/mL (≈ 0.571 µM); MIC [24]: 1.56 µg/mL (≈ 2.28 µM); MIC [25]: 12.5 µg/mL (≈ 18.3 µM); MIC [26]: 12.5 µg/mL (≈ 18.3 µM)
